{
  "source": "patent US9062899B2",
  "about": "“Pairs of working substances for absorption heat pumps, absorption refrigeration machines and heat transformers” (BASF SE, priority 2004, dated 2015)",
  "key": {"[1]": {"experiment": "miscibility of ionic liquid with working substance water", "format": "physicochemical"}, "[2]": {"experiment": "partial pressure of water over aqueous 2-hydroxyethylammonium formate solution, FTIR spectroscopy in the gas phase", "format": "physicochemical", "experimental": "For this purpose, the partial pressure of water over an aqueous 2-hydroxyethylammonium formate solution was determined at a customary phase equilibrium temperature (by means of FTIR spectroscopy in the gas phase)."}},
  "data": [
    {"smiles": "CCn1cc[n+](C)c1.O=S(=O)([O-])C(F)(F)F", "note": "[ethylmethylimidazolium triflate]", "values": [
      {"measurement": "miscibility with water", "setting": "[1]", "value": "can be mixed with water"}
    ]},
    {"smiles": "NCCO.O=CO", "note": "[2-hydroxyethylammonium formate]", "values": [
      {"measurement": "factor by which the vapor pressure of water is reduced on dissolution in the ionic liquid", "setting": "[2]", "value": 4},
      {"measurement": "partial pressure of water over the solution", "setting": "[2]; 30.5° C., 84% by weight of 2-hydroxyethylammonium formate and 16% by weight of water, water itself about 40 mbar", "value": "about 10 mbar"},
      {"measurement": "partial pressure of water over the solution", "setting": "[2]; 34° C., 87% by weight of 2-hydroxyethylammonium formate and 13% by weight of water, water itself about 50 mbar", "value": "about 12 mbar"}
    ]}
  ]
}
